{
  "source": "patent US20160129089A1",
  "about": "“COMBINATION THERAPY” (ANTISENSE THERAPEUTICS LTD, priority 2013, published 2016)",
  "key": {"serum IGF-I": {"system": "serum IGF-I", "assay": "Monotherapy and combination mouse study: serum IGF-I", "type": "in vivo, mice", "settings": "for reduction of sIGF-I: week 1", "source_text": "(§1) The GHr and IGF-I RNA data were statistically analysed using one-way ANOVA followed by Dunnetts test when comparing treated to saline control. The sIGF-I data were statistically analyzed using one-way […] comparisons."}, "liver GHr RNA": {"system": "liver GHr RNA", "assay": "Monotherapy and combination mouse study: relative liver GHR RNA", "type": "in vivo, mice", "settings": "compared to saline control; for reduction of liver GHr RNA: week 3", "source_text": "as §1"}, "liver IGF-I RNA": {"system": "liver IGF-I RNA", "assay": "Monotherapy and combination mouse study: relative liver IGF-I RNA", "type": "in vivo, mice", "settings": "compared to saline control; for reduction of liver IGF-I RNA: week 3, p=0.05", "source_text": "as §1"}, "[1]": {"system": "human growth hormone receptor mRNA", "assay": "Inhibition of human growth hormone receptor mRNA levels by antisense oligonucleotides, quantitative real-time PCR, MCF7 cells", "type": "cell-based", "set-up": "concentration or dose not given beside the values", "settings": "averages from three experiments", "description": "“Target site” indicates the first (5′-most) nucleotide number on the particular target sequence to which the oligonucleotide binds. “% Inhib” indicates the inhibitory effect on hGHR mRNA levels by quantitative real-time PCR. Data are averages from three experiments in which MCF7 cells were treated with the antisense oligonucleotides.\nAll oligonucelotides in Table 1 are chimeric oligonucleotides (“gapmers”), 20 nucleotides in length, composed of a central “gap” region consisting of ten 2′-deoxynucleotides, which is flanked on both sides (5′ and 3′ directions) by five-nucleotide “wings”. The wings are composed of 2′-methoxyethyl (2′-MOE) nucleotides. The internucleoside (backbone) linkages are phosphorothioate (P═S) throughout the oligonucleotide. All uracils are 5-methyluracils (^MeU). Typically, the oligonucleotide is synthesized using 2-methoxyethyl modified thymidines not 5-methyluracils. All pyrimidines are C5 methylated (i.e., U, T, C are C5 methylated)."}},
  "note": "e = 2'-O-(2-methoxyethyl) (MOE); d = 2'-deoxy (DNA)",
  "data": [
    {"compound": "Somavert: current medicinal treatment for acromegaly, used as monotherapy or with a Somatostatin agonist", "values": [
      {"measurement": "increase of sIGF-I levels", "setting": "serum IGF-I; higher Somavert dose, 1 week, patent suspects an issue with the assay", "value": "> 2", "unit": "fold"},
      {"measurement": "reduction of liver GHr RNA", "setting": "liver GHr RNA; Somavert 20 mg/kg, every other day, p=0.01", "value": 79.9, "unit": "%"},
      {"measurement": "increase of liver GHr RNA", "setting": "liver GHr RNA; Somavert lower dose 5 mg/kg, every other day, p=0.05", "value": 23, "unit": "%"},
      {"measurement": "reduction of liver IGF-I RNA", "setting": "liver IGF-I RNA; Somavert 20 mg/kg, every other day", "value": 43.2, "unit": "%"},
      {"measurement": "effect on liver IGF-I RNA", "setting": "liver IGF-I RNA; Somavert lower dose 5 mg/kg, every other day", "value": "no effect"}
    ]},
    {"compound": "C[C@@H](O)[C@@H]1NC(=O)[C@H](CCCCN)NC(=O)[C@@H](Cc2c[nH]c3ccccc23)NC(=O)[C@H](Cc2ccccc2)NC(=O)[C@@H](NC(=O)[C@H](N)Cc2ccccc2)CSSC[C@@H](C(=O)N[C@H](CO)[C@@H](C)O)NC1=O", "note": "[Octreotide, reference compound]", "values": [
      {"measurement": "reduction of sIGF-I", "setting": "serum IGF-I; octreotide 1.25 mg/kg twice daily, compared to baseline control levels, p<0.04", "value": 15, "unit": "%"},
      {"measurement": "reduction of sIGF-I", "setting": "serum IGF-I; octreotide 1.25 mg/kg twice daily, p=0.012", "value": 25.1, "unit": "%"},
      {"measurement": "reduction of serum IGF-I", "setting": "serum IGF-I; octreotide 1.25 mg/kg twice daily, week 3, compared to saline control, p=0.03", "value": 25.2, "unit": "%"},
      {"measurement": "reduction of liver GHr RNA", "setting": "liver GHr RNA; octreotide 1.25 mg/kg twice daily, p=0.001", "value": 82.9, "unit": "%"},
      {"measurement": "reduction of liver IGF-I RNA", "setting": "liver IGF-I RNA; octreotide 1.25 mg/kg twice daily", "value": 47.7, "unit": "%"}
    ]},
    {"compound": "272330 (antisense GATGCACTTTTTGGCATCTG; sugars from the 5' end e5 d10 e5, all phosphorothioate, methylation of C not given here) [compound 272330]", "values": [
      {"measurement": "% INHIB (inhibitory effect on hGHR mRNA levels)", "setting": "[1]", "value": 47, "unit": "%"}
    ]},
    {"compound": "272328 (antisense GGCATTGTCCATAAGGAAGT; sugars from the 5' end e5 d10 e5, all phosphorothioate, methylation of C not given here) [compound 272328]", "values": [
      {"measurement": "% INHIB (inhibitory effect on hGHR mRNA levels)", "setting": "[1]", "value": 85, "unit": "%"}
    ]},
    {"compound": "272360 (antisense TATTAGTTACCTTGAGGAGA; sugars from the 5' end e5 d10 e5, all phosphorothioate, methylation of C not given here) [compound 272360]", "values": [
      {"measurement": "% INHIB (inhibitory effect on hGHR mRNA levels)", "setting": "[1]", "value": 0, "unit": "%"}
    ]},
    {"compound": "272327 (antisense GGACATCCCTGCCTTATTCT; sugars from the 5' end e5 d10 e5, all phosphorothioate, methylation of C not given here) [compound 272327]", "values": [
      {"measurement": "% INHIB (inhibitory effect on hGHR mRNA levels)", "setting": "[1]", "value": 60, "unit": "%"}
    ]},
    {"compound": "227480 (antisense ATGTAAATGTCCTCTTGGTT; sugars from the 5' end e5 d10 e5, all phosphorothioate, methylation of C not given here) [compound 227480]", "values": [
      {"measurement": "% INHIB (inhibitory effect on hGHR mRNA levels)", "setting": "[1]", "value": 66, "unit": "%"}
    ]}
  ]
}
